One test has as its system Pfeiffer cell line. Nature of the test: Anti-proliferative activity, Pfeiffer cell line, 7 day treatment. The format is cell-based. Particulars: Homo sapiens, 168 h. The method, then:
(§1) “N/A” stands for “not assessed”.
(§2) To assess the effect of PRC2 inhibition on cell growth, cells were seeded in 96-well cell culture plates at a density of 2 000-3 000 cells/well in 200 µL of culture medium, and treated with serially diluted compounds for 7 days at 37° C. in an atmosphere of 5% CO2. Cell growth was evaluated by a […] WST-8 assay (Dojindo Molecular Technologies) using a Tecan Infinite M1000 multimode microplate reader (Tecan, Morrisville, NC). The WST-8 reagent was added to the plate, incubated for 1-4 h, and read at 450 nm. The readings were normalized to the DMSO-treated cells, and the IC50 was calculated by nonlinear regression analysis using GraphPad Prism 6 software

The subject of test [1] is KARPAS422 human B cell lymphoma cell. Nature of the test: Cell proliferation, KARPAS422, 7 day treatment (WST-8). The format is cell-based. Particulars: Homo sapiens, KARPAS-422, 168 h. The method, then:
as §1
Analysis of Cell Proliferation:
as §2
In general terms: Formazan colour is commonly taken as a measure of viable cells.

Setting [2] is: anti-proliferative IC50, Pfeiffer cell line, 7 day treatment, read-out: Pfeiffer Cell line.
Setting [3] is: anti-proliferative IC50, Karpas 422 cell line, 7 day treatment, read-out: Karpas Cell line.
Setting [4] is: anti-proliferative IC50 class, Pfeiffer cell line, 7 day treatment, read-out: Pfeiffer Cell line.
Where [5] appears, read: anti-proliferative IC50 class, Karpas 422 cell line, 7 day treatment, read-out: Karpas Cell line.

We go through 22 compounds from US12145944B2, “Imidazopyrimidines as EED inhibitors and the use thereof” (THE REGENTS OF THE UNIVERSITY OF MICHIGAN, priority 2019, dated 2024).

Where two headings read alike, the source gives them in different places.

As for `O=C1OCc2ncccc2-c2cnc(NCc3c(F)ccc4c3CCO4)n3cnc1c23` [Cpd. No. 12, 12-(((5-fluoro-2,3-dihydrobenzofuran-4-yl)methyl)amino)-3H,5H-4-oxa-2,6,11,12a-tetraazabenzo[4,5]cycloocta[1,2,3-cd]inden-3-one], the IC50 in the test with Pfeiffer cell line (setting [2]) was determined as 0.65 nM; in test [1] (setting [3]), 3.84 nM.
The corresponding values for `O=C1NCc2ncccc2-c2cnc(NCc3c(F)ccc4c3CCO4)n3cnc1c23` [Cpd. No. 16, 12-(((5-fluoro-2,3-dihydrobenzofuran-4-yl)methyl)amino)-4,5-dihydro-3H-2,4,6,11,12a-pentaazabenzo[4,5]cycloocta[1,2,3-cd]inden-3-one] are 3.39 nM and 14.7 nM.
The corresponding values for `O=C1c2ncn3c(NCc4c(F)ccc5c4CCO5)ncc(c23)-c2cnc(C(F)(F)F)cc2CN1C1CC1` [Cpd. No. 36, 4-cyclopropyl-12-(((5-fluoro-2,3-dihydrobenzofuran-4-yl)methyl)amino)-7-(trifluoromethyl)-4,5-dihydro-3H-2,4,8,11,12a-pentaazabenzo[4,5]cycloocta[1,2,3-cd]inden-3-one] are 1.04 nM and 5.66 nM.
The corresponding values for `Cc1ccc2c(n1)CS(=O)(=O)c1ncn3c(NCc4c(F)ccc5c4CCO5)ncc-2c13` [Cpd. No. 95, 11-(((5-fluoro-2,3-dihydrobenzofuran-4-yl)methyl)amino)-6-methyl-4H-3-thia-2,5,10,11a-tetraazadibenzo[cd,f]azulene 3,3-dioxide] are 0.023 nM and 0.89 nM.
As to `CS(=O)(=O)c1ncn2c(NCc3c(F)ccc4c3CCO4)ncc(-c3ccccc3)c12` [Cpd. No. 99, N-((5-fluoro-2,3-dihydrobenzofuran-4-yl)methyl)-1-(methylsulfonyl)-8-phenylimidazo[1,5-c]pyrimidin-5-amine], the IC50 in the test with Pfeiffer cell line (Pfeiffer, read-out: Pfeiffer Cell line (nM)) came out at 0.19 nM; in test [1] (read-out: Karpas Cell line (nM)), 0.88 nM.
Regarding `Cc1ccc2c(n1)CN(C(C)C)C(=O)c1ncn3c(NCc4c(F)ccc5c4CCO5)ncc-2c13` [E 1, 12-(((5-fluoro-2,3-dihydrobenzofuran-4-yl)methyl)amino)-4-isopropyl-7-methyl-4,5-dihydro-3H-2,4,6,11,12a-pentaazabenzo[4,5]cycloocta[1,2,3-cd]inden-3-one], the IC50 (in the test on Pfeiffer cell line (setting [4]); in test [1] (setting [5])) was less than 10 nM throughout.
Take `Cc1cc2c(cn1)-c1cnc(NCc3c(F)ccc4c3CCO4)n3cnc(c13)C(=O)N(C(C)C)C2` [E 2, 12-(((5-fluoro-2,3-dihydrobenzofuran-4-yl)methyl)amino)-4-isopropyl-7-methyl-4,5-dihydro-3H-2,4,8,11,12a-pentaazabenzo[4,5]cycloocta[1,2,3-cd]inden-3-one]: the IC50 (in the test on Pfeiffer cell line (setting [4]); in test [1] (setting [5])) was less than 10 nM throughout.
Take `CC(C)N1Cc2cc(C#N)ccc2-c2cnc(NCc3c(F)ccc4c3CCO4)n3cnc(c23)C1=O` [E 4, 12-(((5-fluoro-2,3-dihydrobenzofuran-4-yl)methyl)amino)-4-isopropyl-3-oxo-4,5-dihydro-3H-2,4,11,12a-tetraazabenzo[4,5]cycloocta[1,2,3-cd]indene-7-carbonitrile]: the IC50 (with Pfeiffer cell line (setting [4]); in test [1] (setting [5])) was less than 10 nM each time.
For `O=C1c2ncn3c(NCc4c(F)ccc5c4CCO5)ncc(c23)-c2cnc(C(F)(F)F)cc2CN1C1CCC1` [E 5, 4-cyclobutyl-12-(((5-fluoro-2,3-dihydrobenzofuran-4-yl)methyl)amino)-7-(trifluoromethyl)-4,5-dihydro-3H-2,4,8,11,12a-pentaazabenzo[4,5]cycloocta[1,2,3-cd]inden-3-one], the IC50 (with Pfeiffer cell line (setting [4]); in test [1] (setting [5])) was less than 10 nM in each case.
In the case of `Cc1ccc2c(n1)CN(CC(F)F)C(=O)c1ncn3c(NCc4c(F)ccc5c4CCO5)ncc-2c13` [E 6, 4-(2,2-difluoroethyl)-12-(((5-fluoro-2,3-dihydrobenzofuran-4-yl)methyl)amino)-7-methyl-4,5-dihydro-3H-2,4,6,11,12a-pentaazabenzo[4,5]cycloocta[1,2,3-cd]inden-3-one], the IC50 (in the test on Pfeiffer cell line (setting [4]); in test [1] (setting [5])) was less than 10 nM throughout.
On to `O=C1c2ncn3c(NCc4c(F)ccc5c4CCO5)ncc(c23)-c2ccc(C(F)(F)F)nc2CN1CC(F)F` [E 8, 4-(2,2-difluoroethyl)-12-(((5-fluoro-2,3-dihydrobenzofuran-4-yl)methyl)amino)-7-(trifluoromethyl)-4,5-dihydro-3H-2,4,6,11,12a-pentaazabenzo[4,5]cycloocta[1,2,3-cd]inden-3-one], for which the IC50 (with Pfeiffer cell line (setting [4]); in test [1] (setting [5])) was less than 10 nM each time.
In the case of `Cc1cc2c(cn1)-c1cnc(NCc3c(F)ccc4c3CCO4)n3cnc(c13)C(=O)N(CC(F)F)C2` [E 9, 4-(2,2-difluoroethyl)-12-(((5-fluoro-2,3-dihydrobenzofuran-4-yl)methyl)amino)-7-methyl-4,5-dihydro-3H-2,4,8,11,12a-pentaazabenzo[4,5]cycloocta[1,2,3-cd]inden-3-one], the IC50 (with Pfeiffer cell line (setting [4]); in test [1] (setting [5])) was less than 10 nM each time.
For `Cc1cnc2n1Cc1cc(C(F)(F)F)ncc1-c1cnc(NCc3c(F)ccc4c3CCO4)n3cnc-2c13` [E 10, N-((5-fluoro-2,3-dihydrobenzofuran-4-yl)methyl)-5-methyl-8-(trifluoromethyl)-6H-2,3,5a,9,12,13a-hexaazabenzo[4,5]cyclopenta[7,8]cycloocta[1,2,3-cd]inden-13-amine], the IC50 (in the test with Pfeiffer cell line (setting [4]); in test [1] (setting [5])) was 10 to 100 nM in each case.
`CC(C)N1Cc2cc(C(F)F)ncc2-c2cnc(NCc3c(F)ccc4c3CCO4)n3cnc(c23)C1=O` [E 11, 7-(difluoromethyl)-12-(((5-fluoro-2,3-dihydrobenzofuran-4-yl)methyl)amino)-4-isopropyl-4,5-dihydro-3H-2,4,8,11,12a-pentaazabenzo[4,5]cycloocta[1,2,3-cd]inden-3-one]: the IC50 (with Pfeiffer cell line (setting [4]); in test [1] (setting [5])) was less than 10 nM throughout.
For `CCc1ccc2c(n1)CN(CC(F)(F)F)C(=O)c1ncn3c(NCc4c(F)ccc5c4CCO5)ncc-2c13` [E 12, 7-ethyl-12-(((5-fluoro-2,3-dihydrobenzofuran-4-yl)methyl)amino)-4-(2,2,2-trifluoroethyl)-4,5-dihydro-3H-2,4,6,11,12a-pentaazabenzo[4,5]cycloocta[1,2,3-cd]inden-3-one], the IC50 (in the test with Pfeiffer cell line (setting [4]); in test [1] (setting [5])) was less than 10 nM each time.
For `CCc1ccc2c(n1)CN(CC(F)F)C(=O)c1ncn3c(NCc4c(F)ccc5c4CCO5)ncc-2c13` [E 13, 4-(2,2-difluoroethyl)-7-ethyl-12-(((5-fluoro-2,3-dihydrobenzofuran-4-yl)methyl)amino)-4,5-dihydro-3H-2,4,6,11,12a-pentaazabenzo[4,5]cycloocta[1,2,3-cd]inden-3-one], the IC50 (in the test with Pfeiffer cell line (setting [4]); in test [1] (setting [5])) was less than 10 nM throughout.
For `O=C1c2ncn3c(NCc4c(F)ccc5c4CCO5)ncc(c23)-c2ccc(C3CC3)nc2CN1CC(F)(F)F` [E 14, 7-cyclopropyl-12-(((5-fluoro-2,3-dihydrobenzofuran-4-yl)methyl)amino)-4-(2,2,2-trifluoroethyl)-4,5-dihydro-3H-2,4,6,11,12a-pentaazabenzo[4,5]cycloocta[1,2,3-cd]inden-3-one], the IC50 (in the test on Pfeiffer cell line (setting [4]); in test [1] (setting [5])) was less than 10 nM each time.
For the compound `CC(C)c1ccc2c(n1)CN(CC(F)(F)F)C(=O)c1ncn3c(NCc4c(F)ccc5c4CCO5)ncc-2c13` [E 15, 12-(((5-fluoro-2,3-dihydrobenzofuran-4-yl)methyl)amino)-7-isopropyl-4-(2,2,2-trifluoroethyl)-4,5-dihydro-3H-2,4,6,11,12a-pentaazabenzo[4,5]cycloocta[1,2,3-cd]inden-3-one], the IC50 (in the test with Pfeiffer cell line (setting [4]); in test [1] (setting [5])) was less than 10 nM in each case.
Take `CCc1ccc2c(n1)CN(CC(C)(F)F)C(=O)c1ncn3c(NCc4c(F)ccc5c4CCO5)ncc-2c13` [E 16, 4-(2,2-difluoropropyl)-7-ethyl-12-(((5-fluoro-2,3-dihydrobenzofuran-4-yl)methyl)amino)-4,5-dihydro-3H-2,4,6,11,12a-pentaazabenzo[4,5]cycloocta[1,2,3-cd]inden-3-one]: the IC50 (with Pfeiffer cell line (setting [4]); in test [1] (setting [5])) was less than 10 nM throughout.
Regarding `Cc1cnc2n1Cc1ncccc1-c1cnc(NCc3c(F)ccc4c3CCO4)n3cnc-2c13` [E 17, N-((5-fluoro-2,3-dihydrobenzofuran-4-yl)methyl)-5-methyl-6H-2,3,5a,7,12,13a-hexaazabenzo[4,5]cyclopenta[7,8]cycloocta[1,2,3-cd]inden-13-amine], the IC50 (in the test with Pfeiffer cell line (setting [4]); in test [1] (setting [5])) was 10 to 100 nM each time.
Take `Cc1ccc2c(n1)Cn1c(C)cnc1-c1ncn3c(NCc4c(F)ccc5c4CCO5)ncc-2c13` [E 18, N-((5-fluoro-2,3-dihydrobenzofuran-4-yl)methyl)-5,8-dimethyl-6H-2,3,5a,7,12,13a-hexaazabenzo[4,5]cyclopenta[7,8]cycloocta[1,2,3-cd]inden-13-amine]: the IC50 in the test on Pfeiffer cell line (setting [4]) is less than 10 nM; in test [1] (setting [5]), 10 to 100 nM.
Turning to `[2H]C([2H])(Nc1ncc2c3c(ncn13)C(=O)N(CC(F)(F)F)Cc1cc(C(=O)N(C)C)ccc1-2)c1c(F)ccc2c1CCO2` [E 24, 12-(((5-fluoro-2,3-dihydrobenzofuran-4-yl)methyl-d2)amino)-N,N-dimethyl-3-oxo-4-(2,2,2-trifluoroethyl)-4,5-dihydro-3H-2,4,11,12a-tetraazabenzo[4,5]cycloocta[1,2,3-cd]indene-7-carboxamide], the IC50 (in the test with Pfeiffer cell line (setting [4]); in test [1] (setting [5])) was 10 to 100 nM in each case.
